Measurements as given in ChEMBL document CHEMBL5518218, “Discovery of Novel PD-L1 Small-Molecular Inhibitors with Potent In Vivo Anti-tumor Immune Activity” (J Med Chem, 2024).
Activity calls are given as the source filed them. The rule behind the calls is not given here.

Experiments:
[1] = biological target: Programmed cell death protein 1/Programmed cell death 1 ligand 1 (Homo sapiens, UniProt Q9NZQ7); experiment: Inhibition of PD-1/PD-L1 interaction (unknown origin) incubated for 15 min by HTRF assay; format: protein-complex assay
Programmed cell death protein 1/Programmed cell death 1 ligand 1, sequence (Q15116 whole entry): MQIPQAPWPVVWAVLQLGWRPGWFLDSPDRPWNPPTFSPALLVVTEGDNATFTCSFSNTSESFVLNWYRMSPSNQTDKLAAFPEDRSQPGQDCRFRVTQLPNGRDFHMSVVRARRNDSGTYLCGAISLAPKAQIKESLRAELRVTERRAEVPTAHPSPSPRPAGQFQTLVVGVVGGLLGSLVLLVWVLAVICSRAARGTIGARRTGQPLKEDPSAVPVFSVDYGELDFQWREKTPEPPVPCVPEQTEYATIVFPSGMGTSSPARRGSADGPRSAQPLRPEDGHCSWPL
Programmed cell death protein 1/Programmed cell death 1 ligand 1, sequence (Q9NZQ7 whole entry): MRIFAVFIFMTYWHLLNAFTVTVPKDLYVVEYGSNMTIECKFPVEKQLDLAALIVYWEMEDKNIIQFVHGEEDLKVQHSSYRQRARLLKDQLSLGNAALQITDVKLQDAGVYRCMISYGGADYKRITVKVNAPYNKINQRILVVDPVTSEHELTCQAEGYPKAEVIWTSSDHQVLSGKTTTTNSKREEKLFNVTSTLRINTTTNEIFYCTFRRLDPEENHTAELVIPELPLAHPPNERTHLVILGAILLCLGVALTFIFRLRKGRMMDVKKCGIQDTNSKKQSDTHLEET

[2] = Prodrug conversion in C57BL/6 mouse assessed as Cmax of (2-(benzo[c][1,2,5]oxadiazol-5-ylmethoxy)-5-chloro-4-((2-fluoro-3'-(3-(4-hydroxypiperidin-1-yl)propoxy)-[1,1'-biphenyl]-3-yl)methoxy)benzyl)-D-serine at 2 mg/kg, iv measured upto 24 hrs by LC-MS/MS analysis; format: ADME, organism-based; details: in vivo
[3] = Water solubility of the compound; format: physicochemical
[4] = Prodrug conversion in C57BL/6 mouse assessed as oral bioavailability of (2-(benzo[c][1,2,5]oxadiazol-5-ylmethoxy)-5-chloro-4-((2-fluoro-3'-(3-(4-hydroxypiperidin-1-yl)propoxy)-[1,1'-biphenyl]-3-yl)methoxy)benzyl)-D-serine at 10 mg/kg measured upto 24 hrs by LC-MS/MS analysis; format: ADME, organism-based; details: in vivo
[5] = Prodrug conversion in Sprague-Dawley rat assessed as half life of (2-(benzo[c][1,2,5]oxadiazol-5-ylmethoxy)-5-chloro-4-((2-fluoro-3'-(3-(4-hydroxypiperidin-1-yl)propoxy)-[1,1'-biphenyl]-3-yl)methoxy)benzyl)-D-serine at 45 mg/kg measured upto 24 hrs by LC-MS/MS analysis; format: ADME, organism-based; details: in vivo, po
MC-38 [6] = experiment: Antitumor activity against mouse MC38 cells implanted in C57BL/6J mouse assessed as tumor growth inhibition at 25 mg/kg, po measured for 20 days; format: functional; details: MC-38, 480 h, time 20 day, read-out: TGI
CT26 [7] = experiment: Antitumor activity against mouse CT26 cells implanted in BALB/c mouse assessed as reduction in Treg lymphocyte at 25 mg/kg, ip measured for 20 days; format: functional, organism-based; details: time 20.0 day
[8] = Prodrug conversion in Sprague-Dawley rat assessed as AUC (0 to t) of (2-(benzo[c][1,2,5]oxadiazol-5-ylmethoxy)-5-chloro-4-((2-fluoro-3'-(3-(4-hydroxypiperidin-1-yl)propoxy)-[1,1'-biphenyl]-3-yl)methoxy)benzyl)-D-serine at 45 mg/kg, po measured upto 24 hrs by LC-MS/MS analysis; format: ADME, organism-based; details: in vivo
[9] = Prodrug conversion in Sprague-Dawley rat assessed as Cmax of (2-(benzo[c][1,2,5]oxadiazol-5-ylmethoxy)-5-chloro-4-((2-fluoro-3'-(3-(4-hydroxypiperidin-1-yl)propoxy)-[1,1'-biphenyl]-3-yl)methoxy)benzyl)-D-serine at 45 mg/kg, po measured upto 24 hrs by LC-MS/MS analysis; format: ADME, organism-based; details: in vivo
[10] = Prodrug conversion in Sprague-Dawley rat assessed as Cmax of (2-(benzo[c][1,2,5]oxadiazol-5-ylmethoxy)-5-chloro-4-((2-fluoro-3'-(3-(4-hydroxypiperidin-1-yl)propoxy)-[1,1'-biphenyl]-3-yl)methoxy)benzyl)-D-serine at 9 mg/kg, iv measured upto 24 hrs by LC-MS/MS analysis; format: ADME, organism-based; details: in vivo
MC-38 [11] = experiment: Cytotoxicity against mouse MC38 cells assessed as effect on cell viability at 0.07 to 150 uM incubated for 48 hrs by CCK-8 assay; format: functional, cell-based; details: dose 0.07-150 µM
[12] = Prodrug conversion in C57BL/6 mouse assessed as Cmax of (2-(benzo[c][1,2,5]oxadiazol-5-ylmethoxy)-5-chloro-4-((2-fluoro-3'-(3-(4-hydroxypiperidin-1-yl)propoxy)-[1,1'-biphenyl]-3-yl)methoxy)benzyl)-D-serine at 10 mg/kg, po measured upto 24 hrs by LC-MS/MS analysis; format: ADME, organism-based; details: in vivo
CT26 [13] = experiment: Cytotoxicity against mouse CT26 cells assessed as effect on cell viability at 0.07 to 150 uM incubated for 48 hrs by CCK-8 assay; format: functional, cell-based; details: dose 0.07-150 µM
[14] = Prodrug conversion in C57BL/6 mouse assessed as half life of (2-(benzo[c][1,2,5]oxadiazol-5-ylmethoxy)-5-chloro-4-((2-fluoro-3'-(3-(4-hydroxypiperidin-1-yl)propoxy)-[1,1'-biphenyl]-3-yl)methoxy)benzyl)-D-serine at 2 mg/kg, iv measured upto 24 hrs by LC-MS/MS analysis; format: ADME, organism-based; details: in vivo
[15] = Prodrug conversion in C57BL/6 mouse assessed as Tmax of (2-(benzo[c][1,2,5]oxadiazol-5-ylmethoxy)-5-chloro-4-((2-fluoro-3'-(3-(4-hydroxypiperidin-1-yl)propoxy)-[1,1'-biphenyl]-3-yl)methoxy)benzyl)-D-serine at 2 mg/kg, iv measured upto 24 hrs by LC-MS/MS analysis; format: ADME, organism-based; details: in vivo
[16] = Prodrug conversion in C57BL/6 mouse assessed as half life of (2-(benzo[c][1,2,5]oxadiazol-5-ylmethoxy)-5-chloro-4-((2-fluoro-3'-(3-(4-hydroxypiperidin-1-yl)propoxy)-[1,1'-biphenyl]-3-yl)methoxy)benzyl)-D-serine at 10 mg/kg, po measured upto 24 hrs by LC-MS/MS analysis; format: ADME, organism-based; details: in vivo
[17] = Prodrug conversion in Sprague-Dawley rat assessed as AUC (0 to t) of (2-(benzo[c][1,2,5]oxadiazol-5-ylmethoxy)-5-chloro-4-((2-fluoro-3'-(3-(4-hydroxypiperidin-1-yl)propoxy)-[1,1'-biphenyl]-3-yl)methoxy)benzyl)-D-serine at 9 mg/kg, iv measured upto 24 hrs by LC-MS/MS analysis; format: ADME, organism-based; details: in vivo
CT26 [18] = experiment: Antitumor activity against mouse CT26 cells implanted in BALB/c mouse assessed as increase in percentage of CD8+ cells at 25 mg/kg, ip measured for 20 days; format: functional; details: time 20 day
[19] = Lipophilicity, log D of the compound at pH 7.4; format: physicochemical; details: buffer
[20] = Prodrug conversion in C57BL/6 mouse assessed as clearance of (2-(benzo[c][1,2,5]oxadiazol-5-ylmethoxy)-5-chloro-4-((2-fluoro-3'-(3-(4-hydroxypiperidin-1-yl)propoxy)-[1,1'-biphenyl]-3-yl)methoxy)benzyl)-D-serine at 2 mg/kg, iv measured upto 24 hrs by LC-MS/MS analysis; format: ADME, organism-based; details: in vivo
[21] = Prodrug conversion in Sprague-Dawley rat assessed as Tmax of (2-(benzo[c][1,2,5]oxadiazol-5-ylmethoxy)-5-chloro-4-((2-fluoro-3'-(3-(4-hydroxypiperidin-1-yl)propoxy)-[1,1'-biphenyl]-3-yl)methoxy)benzyl)-D-serine at 9 mg/kg, iv measured upto 24 hrs by LC-MS/MS analysis; format: ADME, organism-based; details: in vivo
[22] = Prodrug conversion in Sprague-Dawley rat assessed as Tmax of (2-(benzo[c][1,2,5]oxadiazol-5-ylmethoxy)-5-chloro-4-((2-fluoro-3'-(3-(4-hydroxypiperidin-1-yl)propoxy)-[1,1'-biphenyl]-3-yl)methoxy)benzyl)-D-serine at 45 mg/kg, po measured upto 24 hrs by LC-MS/MS analysis; format: ADME, organism-based; details: in vivo
[23] = Prodrug conversion in C57BL/6 mouse assessed as Tmax of (2-(benzo[c][1,2,5]oxadiazol-5-ylmethoxy)-5-chloro-4-((2-fluoro-3'-(3-(4-hydroxypiperidin-1-yl)propoxy)-[1,1'-biphenyl]-3-yl)methoxy)benzyl)-D-serine at 10 mg/kg, po measured upto 24 hrs by LC-MS/MS analysis; format: ADME, organism-based; details: in vivo
[24] = Prodrug conversion in Sprague-Dawley rat assessed as half life of (2-(benzo[c][1,2,5]oxadiazol-5-ylmethoxy)-5-chloro-4-((2-fluoro-3'-(3-(4-hydroxypiperidin-1-yl)propoxy)-[1,1'-biphenyl]-3-yl)methoxy)benzyl)-D-serine at 9 mg/kg, iv measured upto 24 hrs by LC-MS/MS analysis; format: ADME, organism-based; details: in vivo

`CCOC(=O)[C@@H](CO)NCc1cc(Cl)c(OCc2cccc(-c3cccc(OCCCN4CCC(O)CC4)c3)c2F)cc1OCc1ccc2nonc2c1.Cl.Cl` showed an IC50 [1] of 786 nM, a Cmax [2] of 872.3 ng/mL and a solubility [3] of 9.52 µM. The F [4] was 11.5%, the t1/2 [5] was 4.3 h and the inhibition in vivo at 25 mg/kg (MC-38 [6]) was 73.6%. For the same compound, the Activity (CT26 [7]) was “Active”, the AUCt [8] was 405.6 ng·h/mL and the Cmax [9] was 49.8 ng/mL. For the same compound, the Cmax [10] was 3760.7 ng/mL, the Activity (MC-38 [11]) was “inactive” and the Cmax [12] was 255.7 ng/mL. The Activity (CT26 [13]) was “inactive”, the t1/2 [14] was 1.7 h and the Tmax [15] was 4.8 min. It also gave a t1/2 [16] of 1.6 h, an AUCt [17] of 2373.5 ng·h/mL and an Activity (CT26 [18]) of 7.2%. The logD [19] was 1.59, the CL [20] was 61.845 mL/min/kg and the Tmax [21] was 4.8 min. The Tmax [22] was 4 h, the Tmax [23] was 0.7 h and the t1/2 [24] was 7.9 h.
